This passage reports TGI results from PubChem BioAssay (NCI).

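Results reflect a 48-hour exposure of cells in 96-well plates to compound at five concentrations. Definition used: TGI = concentration required for complete inhibition of growth.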 Where only a bound is given, the exact number is not on record here.

Common to all, as to test: inhibition of tumour cell growth, NCI panel, 48 h
Assay [1] relates to OVCAR-5 ovarian.
The test system of assay [2] is A498 renal.
The subject of assay [3] is SK-OV-3 ovarian.
For assay [4], the system named is A549 NSCLC.
Assay [5] relates to SNB-19 CNS.
For assay [6], the system named is MALME-3M melanoma.
In assay [7] the test system is SF-268 CNS.
Assay [8] concerns NCI-H226 lung.
For assay [9], the system named is OVCAR-4 ovarian.

On to `N#CN=C(N(Cc1ccccc1)Cc1ccccc1)N(Cc1ccccc1)Cc1ccccc1`, for which the TGI in assay [1], in [2], in assay [3], in assay [4], in assay [5] and in [6] was above 100 µM throughout. Besides, the TGI in [7] and in assay [8] was above 100 µM throughout.
As to `CCN(CC)CCC(=O)Nc1ccc2c(c1)C(=O)c1ccc(NC(=O)CCN(CC)CC)cc1C2=O`, the TGI in assay [1] turned out to be 25.1 µM; in assay [2], 17.8 µM; in assay [3], 21.7 µM; in assay [4] it was 20.6 µM; in [5], 18.6 µM; in [7], 18.9 µM. The TGI in assay [8] is 7.8 µM; in assay [9], 18.9 µM.
For `COC(=O)[C@H](Cc1c[nH]c2ccccc12)NP(=O)(O)OCC1C=CC(n2cc(C)c(=O)[nH]c2=O)O1` (some centres not stated), the TGI in [2], in assay [5], in assay [7], in [8] and in assay [9] was above 100 µM in each case.
As to `CCCN=C1CCN(Cc2ccccc2)c2ccccc2N1`, the TGI was above 100 µM in assay [1]; 25.4 µM in assay [2]; above 100 µM in [3]; above 100 µM in [4]; above 100 µM in assay [5]; 22.1 µM in assay [6]. Also, the TGI is 36.8 µM in assay [7], 96.1 µM in [8] and above 100 µM in assay [9].
As to `COc1nc(N)c(C(=O)CCl)c(=O)n1C`, the TGI in [1] is 37.2 µM; in [2], 32.4 µM; in assay [4] it was 51.6 µM; in assay [5], 52 µM; in assay [6], 22.7 µM; in assay [7] it was 55.2 µM. Also, the TGI in assay [8] turned out to be 20.5 µM; in assay [9], 33.2 µM.
As for `CC(=O)NC1=C(NCCC(C)C)C(=O)c2ccccc2C1=O`, the TGI in [3], in assay [4], in [5], in assay [6], in assay [7] and in [8] was above 50 µM in each case. Moreover, the TGI in assay [9] is above 50 µM.
Take `Cc1cccc2c(=O)cc(-c3ccccc3)[nH]c12`: the TGI in [2] was 36 µM; in assay [4], above 100 µM; in assay [5] it was above 100 µM; in assay [6] it was above 100 µM; in assay [7], above 100 µM; in [8], above 100 µM. The compound also displayed a TGI in assay [9] of 35.7 µM.
As for `CCOC(=O)C1=C(C)NC(=S)NC1c1ccccc1` (configuration not stated), the TGI in assay [1] was above 100 µM; in [2], above 100 µM; in [3], above 100 µM; in assay [4], above 100 µM; in [5] it was above 22.5 µM; in [6] it was above 100 µM. Besides, the TGI in assay [7], in [8] and in assay [9] was above 100 µM each time.
With `Brc1ccc(N=c2nc3ccccn3n3nc(-c4ccccc4)cc23)cc1`, the TGI in assay [3] is above 100 µM; in assay [4] it was above 100 µM; in assay [5] it was 95.1 µM; in assay [6], 26.7 µM; in assay [7], above 100 µM; in assay [8], above 100 µM. Moreover, the TGI in assay [9] was 20.7 µM.
As for `O=C1c2ccccc2C2C1N2C(=O)C(F)(F)F` (configuration not stated), the TGI in assay [1], in assay [2], in assay [3], in assay [4], in assay [5] and in assay [6] was above 100 µM in each case. Further, the TGI in [7], in assay [8] and in assay [9] was above 100 µM throughout.
Take `CC(=O)Nc1ccc(-c2nnc(SCC(=O)Nc3ccc([N+](=O)[O-])cc3)o2)cc1`: the TGI in [1] was 36 µM; in assay [3], 35.9 µM; in assay [4] it was 37 µM; in assay [6] it was 27 µM; in [7], 27.7 µM; in [8], 29.5 µM. Moreover, the TGI in assay [9] came out at 26.3 µM.
With `O=c1[nH][nH]c(=O)n1Cc1ccccc1Cn1c(=O)[nH][nH]c1=O`, the TGI in [1], in [2], in [3], in assay [4], in assay [5] and in assay [6] was above 100 µM each time. The TGI in assay [7] and in [8] was above 100 µM each time.
Take `N.N.N.N.O=[N+]([O-])[O-].[Co+3].[N-]=[N+]=[N-].[N-]=[N+]=[N-]`: the TGI in assay [1], in [2], in [3], in assay [4], in assay [5] and in assay [6] was above 100 µM each time. For the same compound, the TGI in assay [7] and in assay [9] was above 100 µM in each case.
Regarding `[N-]=[N+]=Nc1cc(=O)oc2ccccc12`, the TGI in assay [1], in assay [3], in [4], in assay [6], in assay [7] and in [8] was above 100 µM throughout. For the same compound, the TGI in assay [9] is above 100 µM.
